Test results as given in patent US11186589B2, “Cyanoindoline derivatives as NIK inhibitors” (Janssen Pharmaceutica NV, priority 2016, dated 2021).
Where two headings read alike, the source gives them in different places.

Key:
JJN-3 cells = test: Antiproliferative activity on JJN-3 (NIK translocated) multiple myeloma cells (CellTiter-Glo); type: cell-based, human; settings: JJN-3 (NIK translocated) cells, 96 hr treatment, averaged values, read-out: JJN-3 Proliferation inhibition (IC50 (nM))
Description: (§1) Determination of Antiproliferative Activity on JJN-3 (NIK Translocated) and KMS12-BM (NIK WT) Multiple Myeloma Cells
(§2) All compounds tested were dissolved in DMSO and further dilutions were made in culture medium. Final DMSO concentration was 0.3% (v/v) in cell proliferation assays. Viability was assessed using CellTiter-Glo cell viability assay kit (Promega). The human JJN-3 and KMS12-BM cells (DSMZ) were cultured in RPMI 1640 medium supplemented with 2 mM L-glutamine, and 10% fetal calf serum (PAA). Cells were routinely kept as suspension cells at 37° C. in a humidified 5% CO2 atmosphere. Cells were passaged at a seeding density of 0.2×10^6/ml twice a week. Cells were seeded in black tissue culture treated 96-well plates (Perkin Elmer). Densities used for plating ranged from 15000 (JJN3) to 20000 (KMS12BM) cells per well in a total volume of […]. Drugs and/or solvents were added (15 μl) to a final volume of 150 μl. Following 96 hr of treatment, plates were removed from the incubator and allowed to equilibrate to room temperature for approx 10 min. 75 μl CellTiter-Glo reagent was added to each well that was then covered (Perkin Elmer Topseal) and shaken on plate shaker for 10 min. Luminescence was measured on a HTS Topcount (Perkin Elmer). Within an experiment, the results for each treatment were the mean of 2 replicate wells. For initial screening purposes, compounds were tested using a 9 point dilution curve (serial 1:3 dilutions). For each experiment, controls (containing no drug) and a blank incubation (containing cells read at the time of compound addition) were run in parallel. The blank value was subtracted from all control and sample values. For each sample, the mean value for cell growth (in relative light units) was expressed as a percentage of the mean value for cell growth of the control.

NIK/MAP3K14 = NIK/MAP3K14 (Homo sapiens (Human), UniProt Q99558); test: Inhibition of auto-phosphorylation of recombinant human NF-kappaB-inducing kinase (NIK/MAP3K14) activity (AlphaScreen); type: biochemical; settings: averaged values over all measurements on all batches, 25 microM ATP
Sequence of NIK/MAP3K14 (Q99558 whole entry): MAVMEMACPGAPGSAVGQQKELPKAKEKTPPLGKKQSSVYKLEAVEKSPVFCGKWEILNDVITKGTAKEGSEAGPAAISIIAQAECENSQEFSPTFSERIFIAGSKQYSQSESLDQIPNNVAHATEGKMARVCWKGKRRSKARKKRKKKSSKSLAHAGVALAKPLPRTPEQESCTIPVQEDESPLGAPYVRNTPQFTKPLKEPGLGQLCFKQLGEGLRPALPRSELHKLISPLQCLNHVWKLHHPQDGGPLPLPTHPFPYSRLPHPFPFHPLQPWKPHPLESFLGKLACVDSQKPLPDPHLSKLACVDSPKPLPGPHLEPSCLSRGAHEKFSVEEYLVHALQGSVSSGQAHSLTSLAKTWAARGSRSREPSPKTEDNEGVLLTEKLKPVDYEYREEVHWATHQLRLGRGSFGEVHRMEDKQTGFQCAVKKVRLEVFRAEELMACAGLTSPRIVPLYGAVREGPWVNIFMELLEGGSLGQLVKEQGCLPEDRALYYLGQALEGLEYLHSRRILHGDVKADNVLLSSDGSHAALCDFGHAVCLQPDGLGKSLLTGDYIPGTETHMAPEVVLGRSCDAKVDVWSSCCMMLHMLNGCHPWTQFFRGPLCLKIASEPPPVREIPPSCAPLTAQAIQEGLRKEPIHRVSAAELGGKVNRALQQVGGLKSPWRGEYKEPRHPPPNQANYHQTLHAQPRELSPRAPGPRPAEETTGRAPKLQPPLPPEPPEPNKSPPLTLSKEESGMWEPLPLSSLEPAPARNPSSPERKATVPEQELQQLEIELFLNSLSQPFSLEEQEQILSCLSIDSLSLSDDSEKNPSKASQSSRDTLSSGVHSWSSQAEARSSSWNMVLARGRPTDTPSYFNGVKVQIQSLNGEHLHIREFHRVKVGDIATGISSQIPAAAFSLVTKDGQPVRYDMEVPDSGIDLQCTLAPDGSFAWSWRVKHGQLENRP
Description: Inhibition of Auto-Phosphorylation of Recombinant Human NF-kappaB-Inducing Kinase ([…]) Activity (AlphaScreen®)
NIK/MAP3K14 auto-phosphorylation activity was measured using the AlphaScreen® (αscreen) format (Perkin Elmer). All compounds tested were dissolved in dimethyl sulfoxide (DMSO) and further dilutions were made in assay buffer. Final DMSO concentration was […] in assays. Assay buffer was 50 mM Tris pH 7.5 containing 1 mM EGTA (ethylene glycol tetraacetic acid), 1 mM DTT (dithiothreitol), 0.1 mM Na3VO4, 5 mM MgCl2, 0.01% Tween® 20. Assays were carried out in 384 well Alphaplates (Perkin Elmer). Incubations consisted of compound, 25 microM Adenosine-5′-triphosphate (ATP), and 0.2 nM NIK/MAP3K14. Incubations were initiated by addition of GST-tagged NIK/MAP3K14 enzyme, carried out for 1 h at 25° C. and terminated by addition of stop buffer containing anti-phospho-[…] Ser176/180 antibody. Protein A Acceptor and Glutathione-Donor beads were added before reading using an EnVision® Multilabel Plate Reader (Perkin Elmer). Signal obtained in the wells containing blank samples was subtracted from all other wells and IC50's were determined by fitting a sigmoidal curve to % inhibition of control versus Log10 compound concentration.

KMS12-BM cells = test: Antiproliferative activity on KMS12-BM (NIK WT) multiple myeloma cells (CellTiter-Glo); type: cell-based, human; settings: 96 hr treatment, averaged values, read-out: KMS-12 Proliferation inhibition (IC50 (nM))
Description: as §1, §2

[1] = system: P-IKKα levels in L363 cells; test: Effect of compounds on P-IKKα levels in L363 (NIK translocated multiple myeloma) cells; type: cell-based, human; settings: 2 hr treatment, averaged values, read-out: Inhibition of pIKKα_L-363 (IC50 (nM))
Description: Effect of Compounds on P-IKKα Levels in L363 (NIK Translocated Multiple Myeloma) Cells
All compounds tested were dissolved in DMSO and further dilutions were made in culture medium. Final DMSO concentration was 1% (v/v) in cell assays. The human L363 cells (ATCC) were cultured in RPMI 1640 medium supplemented with GlutaMax and 10% fetal calf serum (PAA). Cells were routinely maintained at densities of 0.2×10^6 cells per ml—1×10^6 cells per ml at 37° C. in a humidified 5% CO2 atmosphere. Cells were passaged twice a week splitting back to obtain the low density. Cells were seeded in 96 well plates (Nunc 167008) at 2×10^6 per ml media in a volume of 75 μl per well plus 25 μl 1 μg/ml recombinant human B-cell activating factor (BAFF/BLyS/TNFSF13B). Seeded cells were incubated at 37° C. in a humidified 5% CO2 atmosphere for 24 hr. Drugs and/or solvents were added (20 μl) to a final volume of 120 μl. Following 2 hr treatment plates were removed from the incubator and cell lysis was achieved by the addition of 30 μl 5× lysis buffer followed by shaking on a plate shaker at 4° C. for 10 min. At the end of this incubation lysed cells were centrifuged at 800×g for 20 min at 4° C. and the lysate was assessed for P-IKKα levels by sandwich immuno-assay carried out in anti-rabbit antibody coated Mesoscale plates. Within an experiment, the results for each treatment were the mean of 2 replicate wells. For initial screening purposes, compounds were tested using an 8 point dilution curve (serial 1:3 dilutions). For each experiment, controls (containing MG132 and BAFF but no test drug) and a blank incubation (containing MG132 and BAFF and 10 μM ADS125117, a test concentration known to give full inhibition) were run in parallel. The blank incubation value was subtracted from all control and sample values. To determine the IC50 a sigmoidal curve was fitted to the plot of % inhibition of control P-IKKα levels versus Log10 compound concentration.

SMILES | IC50 (JJN-3 cells; Homo sapiens, JJN-3, 96 h) [nM] | IC50 (NIK/MAP3K14) [nM] | IC50 (KMS12-BM cells) [nM] | IC50 ([1]; Homo sapiens, L-363, 2 h) [nM] | IC50 (JJN-3 cells) [nM] | IC50 [1] [nM] | IC50 (KMS12-BM cells; Homo sapiens, KMS-12-BM, 96 h) [nM]
CC1CCn2ncc(Nc3nccc(-c4cc(C#N)c5c(c4)[C@@](C)(CO)CN5)n3)c2O1 (single isomer, unassigned) [Compound 1b] | 58 | 2.8 | ~2820 | 2 |  |  | 
CC1CCn2ncc(Nc3nccc(-c4cc(C#N)c5c(c4)[C@@](C)(CO)CN5)n3)c2O1 (single isomer, unassigned) [Compound 2b] |  | 2 | > 10000 |  | 93 | 4 | 
CC(C)C1CCn2ncc(Nc3nccc(-c4cc(C#N)c5c(c4)[C@@](C)(CO)CN5)n3)c2O1 (single isomer, unassigned) [Compound 22b] |  | 7.1 | > 10000 | 3 | 166 |  | 
CC(C)C1CCn2ncc(Nc3nccc(-c4cc(C#N)c5c(c4)[C@@](C)(CO)CN5)n3)c2O1 (single isomer, unassigned) [Compound 23b] |  | 6.9 | ~2240 |  | 45 | 2 | 
CC1CCCn2ncc(Nc3nccc(-c4cc(C#N)c5c(c4)[C@@](C)(CO)CN5)n3)c2O1 (single isomer, unassigned) [Compound 29b] |  | 3.9 |  |  | 85 | 6 | > 10000
CC1CCCn2ncc(Nc3nccc(-c4cc(C#N)c5c(c4)[C@@](C)(CO)CN5)n3)c2O1 (single isomer, unassigned) [Compound 30b] |  | 5.2 | > 10000 |  | 263 | 13 | 
CNC(=O)CCn1ccc2c(Nc3nccc(-c4cc(C#N)c5c(c4)C(C)(C)CN5)n3)cc(Cl)cc21 [Compound 1c] | 26 | 30.2 |  | 23 |  |  | 1380
CC(C)(O)Cn1ccc2c(Nc3nccc(-c4cc(C#N)c5c(c4)C(C)(C)CN5)n3)cc(Cl)cc21 [Compound 2c] | 123 | 87.1 |  | 78 |  |  | ~6030
CN1CCn2ncc(Nc3nccc(-c4cc(C#N)c5c(c4)[C@@](C)(CO)CN5)n3)c2C1=O [Compound 3b] | 91 | 1 |  | 3 |  |  | > 10000
C[C@]1(CO)CNc2c(C#N)cc(-c3ccnc(Nc4cnn5c4COCC5)n3)cc21 [Compound 12b] | 251 | 1.5 |  | 4 |  |  | ~549
CN1CCn2nc(Nc3nccc(-c4cc(C#N)c5c(c4)[C@@](C)(CO)CN5)n3)cc2C1=O [Compound 13b] | 457 | 2 |  | 29 |  |  | ~1860
C[C@]1(CO)CNc2c(C#N)cc(-c3ccnc(Nc4cnn5c4OCCC5)n3)cc21 [Compound 14b] | 155 | 2 |  | 6 |  |  | 3980
CN1CCn2ncc(Nc3nccc(-c4cc(C#N)c5c(c4)[C@@](C)(CO)CN5)n3)c2C1 [Compound 15b] | 200 | 3.5 |  | 11 |  |  | ~4470
CC(C)N1CCn2ncc(Nc3nccc(-c4cc(C#N)c5c(c4)[C@@](C)(CO)CN5)n3)c2C1=O [Compound 17b] | 309 | 3 |  | 3 |  |  | > 10000
CN(C)C1COc2c(cc(Cl)cc2Nc2nccc(-c3cc(C#N)c4c(c3)[C@@](C)(CO)CN4)n2)C1 (stereo partly shown) [Compound 18] |  | 4.1 | 9 | 16 | 1 |  | 
CC(C)N1CCn2ncc(Nc3nccc(-c4cc(C#N)c5c(c4)[C@@](C)(CO)CN5)n3)c2C1 [Compound 18b] | 288 | 6.2 |  | 7 |  |  | ~5500
COC[C@@H]1Cn2ncc(Nc3nccc(-c4cc(C#N)c5c(c4)[C@@](C)(CO)CN5)n3)c2O1 [Compound 19b] | 316 | 11.7 |  | 19 |  |  | ~5500
C[C@]1(CO)CNc2c(C#N)cc(-c3ccnc(Nc4cc5c(nc4CCC4CC4)CCOC5)n3)cc21 [Compound 21] | 81 | 3 |  | 21 |  |  | 3890
Cc1cc2c(cc1Nc1nccc(-c3cc(C#N)c4c(c3)[C@@](C)(CO)CN4)n1)CCN(C)CC2 [Compound 23] | 162 | 4.8 |  | ~79 |  |  | ~550
COc1cc2c(cc1Nc1nccc(-c3cc(C#N)c4c(c3)[C@@](C)(CO)CN4)n1)CCN(C)CC2 [Compound 24] | ~214 | 3 |  | ~74 |  |  | ~288
CC1(C)CCOc2c(Nc3nccc(-c4cc(C#N)c5c(c4)[C@@](C)(CO)CN5)n3)cnn21 [Compound 24b] | 676 | 4.9 |  | 28 |  |  | ~5890
COc1nc2c(cc1Nc1nccc(-c3cc(C#N)c4c(c3)[C@@](C)(CO)CN4)n1)COCC2 [Compound 25] | 174 | 1.7 |  | 10 |  |  | > 10000
